Laboratory results: US7303895B1 (priority 1999, dated 2007)

What was measured:
Format in all cases: cell-based
[1] = target: T1, mutant yeast transformed by 4.17 (truncated tCTL1) (Torpedo marmorata, UniProt Q9I9B9, G501V); assay: saturable [3H]choline absorption by mutant yeast transformed with clone 4.17; conditions: 1 μM HC-3, 30° C., 30 minutes
T1 construct: the suppressor, 4.17, whose first ATG corresponds to M471 of tCTLI; expressed in transfected cells; host or cells: Saccharomyces cerevisiae ctr ise URA3 mutant strain, plasmid pFL61
Experimental: The transformed yeast was incubated at 30° C. for 30 minutes with 25 nM [3H]-choline.
The plasmids were isolated from colonies having a strong choline-dependent growth phenotype, and they were used to transform aliquot fractions of mutant yeast in order to eliminate the ctr reverse mutants and the yeast suppressor mutations.
The culture density was normalized by measuring the OD600.

N18 cells = assay: capture of tritiated choline by N18 cells transiently transfected with rCTL1a/pcDNA3, rCTL1b/pcDNA3 or pcDNA3; conditions: 10 μM of the substance; 24 hours after transfection; same in all three transfections (rCTL1a, rCTL1b, empty pcDNA3); result not shown
CTL1 in glioma cell C6 = target: T2, CTL1 in glioma cell C6 (Rattus norvegicus, UniProt Q8VII6, K645E/R267S); assay: total absorption of choline by glioma C6 cells transiently transfected with CTL1pcDNA3; conditions: hemicholinium-3; 48 hours after transfection; only C6-CTL1pcDNA3 cells, not empty-plasmid cells
T2 construct: expressed in transfected cells; host or cells: glioma C6 cells, transient transfection, vector pcDNA3
T2 sequence (Q8VII6 1-653 isoform Q8VII6-2 R267S/K645E): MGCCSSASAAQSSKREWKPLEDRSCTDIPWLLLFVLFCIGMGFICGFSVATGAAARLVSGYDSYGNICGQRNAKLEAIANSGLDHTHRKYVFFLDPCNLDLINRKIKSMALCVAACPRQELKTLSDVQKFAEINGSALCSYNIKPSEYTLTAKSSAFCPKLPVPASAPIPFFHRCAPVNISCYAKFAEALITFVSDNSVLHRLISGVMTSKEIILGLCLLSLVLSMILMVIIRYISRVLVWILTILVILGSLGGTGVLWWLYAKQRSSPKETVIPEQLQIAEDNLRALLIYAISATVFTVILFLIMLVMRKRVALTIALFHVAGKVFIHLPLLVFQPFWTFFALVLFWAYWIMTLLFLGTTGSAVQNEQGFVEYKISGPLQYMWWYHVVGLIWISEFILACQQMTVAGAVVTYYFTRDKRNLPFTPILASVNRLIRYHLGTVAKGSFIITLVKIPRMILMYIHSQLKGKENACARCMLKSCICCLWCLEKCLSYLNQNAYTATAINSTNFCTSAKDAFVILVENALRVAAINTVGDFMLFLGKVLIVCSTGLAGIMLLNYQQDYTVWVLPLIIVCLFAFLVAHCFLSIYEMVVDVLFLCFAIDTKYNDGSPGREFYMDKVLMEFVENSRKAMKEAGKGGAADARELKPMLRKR
Excerpt: FIGS. 8A-8C: Transient transfection of glioma cell C6 with the vector CTL1pcDNA3 described in FIG. 6.

T1 sequence (Q9I9B9 471-646 G501V): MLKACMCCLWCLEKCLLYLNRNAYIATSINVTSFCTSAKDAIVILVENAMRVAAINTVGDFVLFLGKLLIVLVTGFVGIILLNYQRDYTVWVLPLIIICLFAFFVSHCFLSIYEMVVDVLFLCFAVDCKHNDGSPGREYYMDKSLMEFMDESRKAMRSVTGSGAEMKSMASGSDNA

C[N+]1(C)CCOC(O)(c2ccc(-c3ccc(C4(O)C[N+](C)(C)CCO4)cc3)cc2)C1.[Br-].[Br-] (stereo not drawn) [HC-3, hemicholinium-3]
saturable [3H]choline absorption by the yeast transformed in 4.17 [1]: inhibited | inhibition of capture of tritiated choline (N18 cells): about 50% | inhibition of total absorption of choline (CTL1 in glioma cell C6): inhibition
